Results reported in patent publication US9579401B2, “Staining composition” (Medical Technology Transfer Holding B.V., priority 2010, dated 2017).

Experiment: Stability of trypan blue and brilliant blue G in polymer solutions, 70° C. for 7 days, absorbance spectra
Settings: 0.025% (w/v)

CCOc1ccc(Nc2ccc(/C(=C3C=C/C(=[N+](/CC)Cc4cccc(S(=O)(=O)[O-])c4)C=C/3C)c3ccc(N(CC)Cc4cccc(S(=O)(=O)[O-])c4)cc3C)cc2)cc1.[Na+] [brilliant blue G]
stability of brilliant blue G (difference absorbance spectra) (4% (w/v) PEG Mw≈3350): excellent solvent
stability of brilliant blue G (difference absorbance spectra) (PVA Mw≈13,000-23,000): much less stable
